Tests used:
[1] = target: T1, cGMP-dependent 3',5'-cyclic phosphodiesterase (Homo sapiens, UniProt O00408); format: cell-based, SF-21
Description: Inhibition of recombinant PDE2A (unknown origin) expressed in baculovirus infected insect SF-21 cells using [3H]-cAMP as substrate after 30 mins by liquid scintillation counting analysis

[2] = Clearance in iv dosed rat; format: ADME, organism-based; conditions: in vivo
[3] = Half life in iv dosed rat; format: ADME, organism-based; conditions: in vivo
[4] = Drug uptake in Wistar rat striatum at 0.03 mg/kg, iv after 5 mins by LC-MS analysis; format: ADME, organism-based; design: dose 0.03 mg/kg, route intravenous; conditions: read-out: Drug uptake
Homo sapiens [5] = species on record: Homo sapiens; assay: Selectivity ratio of IC50 for human PDE10A to IC50 for human PDE2A
[6] = target: T2, cAMP and cAMP-inhibited cGMP 3',5'-cyclic phosphodiesterase 10A (Homo sapiens, UniProt Q9Y233); assay: Inhibition of recombinant PDE10A (unknown origin) expressed in baculovirus infected insect SF-21 cells using [3H]-cAMP as substrate after 30 mins by liquid scintillation counting analysis
T2 sequence (Q9Y233 whole entry): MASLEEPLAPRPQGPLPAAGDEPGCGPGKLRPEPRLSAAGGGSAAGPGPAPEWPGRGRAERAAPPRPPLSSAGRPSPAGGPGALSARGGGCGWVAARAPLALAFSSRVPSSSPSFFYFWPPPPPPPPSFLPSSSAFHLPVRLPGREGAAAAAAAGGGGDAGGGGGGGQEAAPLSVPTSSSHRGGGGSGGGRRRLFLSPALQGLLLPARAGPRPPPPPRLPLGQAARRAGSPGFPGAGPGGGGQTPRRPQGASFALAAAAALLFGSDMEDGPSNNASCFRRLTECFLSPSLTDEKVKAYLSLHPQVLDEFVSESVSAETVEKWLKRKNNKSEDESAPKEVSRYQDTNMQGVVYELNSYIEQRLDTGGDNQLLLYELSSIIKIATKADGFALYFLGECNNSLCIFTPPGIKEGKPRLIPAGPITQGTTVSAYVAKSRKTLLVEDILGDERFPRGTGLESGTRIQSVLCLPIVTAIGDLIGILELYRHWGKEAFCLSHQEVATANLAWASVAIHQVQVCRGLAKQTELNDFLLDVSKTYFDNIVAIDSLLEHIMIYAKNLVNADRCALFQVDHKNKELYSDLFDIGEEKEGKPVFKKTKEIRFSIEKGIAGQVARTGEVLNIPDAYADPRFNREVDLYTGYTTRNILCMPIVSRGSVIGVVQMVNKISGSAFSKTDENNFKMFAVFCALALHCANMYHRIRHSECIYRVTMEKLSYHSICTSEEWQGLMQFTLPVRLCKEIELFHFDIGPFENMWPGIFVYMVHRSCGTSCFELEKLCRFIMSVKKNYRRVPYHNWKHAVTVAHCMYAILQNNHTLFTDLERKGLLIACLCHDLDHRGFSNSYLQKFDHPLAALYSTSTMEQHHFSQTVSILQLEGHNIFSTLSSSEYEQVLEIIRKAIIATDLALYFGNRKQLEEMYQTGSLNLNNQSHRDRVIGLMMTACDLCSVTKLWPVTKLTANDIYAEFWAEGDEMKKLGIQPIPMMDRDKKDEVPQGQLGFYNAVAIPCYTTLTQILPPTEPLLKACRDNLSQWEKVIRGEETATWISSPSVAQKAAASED

[7] = target: T2, cAMP and cAMP-inhibited cGMP 3',5'-cyclic phosphodiesterase 10A
Description: Inhibition of PDE10A (unknown origin) using tritium labeled cAMP as substrate after 1 hr by scintillation proximity assay

[8] = target: T1, cGMP-dependent 3',5'-cyclic phosphodiesterase
Description: Inhibition of PDE2A (unknown origin) using tritium labeled cAMP as substrate after 1 hr by scintillation proximity assay

[9] = Ratio of unbound drug level in brain to plasma in rat; conditions: brain and plasma (unbound), read-out: K(p,uu,brain)
Cerebellum [10] = assay: Biodistribution in cerebellum of rat measured at 10 mins by microPET image analysis; format: ADME, organism-based; conditions: in vivo
Cerebellum [11] = assay: Biodistribution in cerebellum of rat measured at 2 mins by microPET image analysis; format: ADME, organism-based; conditions: in vivo
Cerebrum [12] = assay: Biodistribution in cerebrum of rat measured at 10 mins by microPET image analysis; format: ADME, organism-based; conditions: in vivo
Cerebrum [13] = assay: Biodistribution in cerebrum of rat measured at 2 mins by microPET image analysis; format: ADME, organism-based; conditions: in vivo
[14] = Selectivity ratio of IC50 for PDE (unknown origin) to IC50 for porcine/bovine heart myocardium PDE2; format: tissue-based
[15] = Selectivity ratio of IC50 for porcine/bovine PDE1C to IC50 for porcine/bovine heart myocardium PDE2; format: tissue-based
[16] = Inhibition of pig/bovine heart myocardium PDE2 after 15 mins by scintillation proximity assay in presence of [3H]-cAMP; format: tissue-based
Bos taurus [17] = species on record: Bos taurus; assay: Inhibition of bovine vascular smooth muscle PDE4 using cAMP/cGMP as substrate at 10 uM relative to control; format: tissue-based; conditions: Muscle tissue
Bos taurus [18] = species on record: Bos taurus; assay: Inhibition of bovine vascular smooth muscle PDE3 using cAMP/cGMP as substrate at 10 uM relative to control; format: tissue-based; conditions: Muscle tissue
Homo sapiens [19] = species on record: Homo sapiens; assay: Selectivity ratio of IC50 for PDE9A (unknown origin) to IC50 for full length recombinant human PDE2A; conditions: tested as the 18F-labelled form
Homo sapiens [20] = species on record: Homo sapiens; assay: Selectivity ratio of IC50 for PDE11 (unknown origin) to IC50 for full length recombinant human PDE2A; conditions: tested as the 18F-labelled form
Homo sapiens [21] = species on record: Homo sapiens; assay: Selectivity ratio of IC50 for PDE8B (unknown origin) to IC50 for full length recombinant human PDE2A; conditions: tested as the 18F-labelled form
Homo sapiens [22] = species on record: Homo sapiens; assay: Selectivity ratio of IC50 for PDE7B (unknown origin) to IC50 for full length recombinant human PDE2A; conditions: tested as the 18F-labelled form
Homo sapiens [23] = species on record: Homo sapiens; assay: Selectivity ratio of IC50 for PDE6A (unknown origin) to IC50 for full length recombinant human PDE2A; conditions: tested as the 18F-labelled form
Homo sapiens [24] = species on record: Homo sapiens; assay: Selectivity ratio of IC50 for PDE4D (unknown origin) to IC50 for full length recombinant human PDE2A; conditions: tested as the 18F-labelled form
Homo sapiens [25] = species on record: Homo sapiens; assay: Selectivity ratio of IC50 for PDE5A (unknown origin) to IC50 for full length recombinant human PDE2A; conditions: tested as the 18F-labelled form
Homo sapiens [26] = species on record: Homo sapiens; assay: Selectivity ratio of IC50 for PDE3A (unknown origin) to IC50 for full length recombinant human PDE2A; conditions: tested as the 18F-labelled form
Homo sapiens [27] = species on record: Homo sapiens; assay: Selectivity ratio of IC50 for PDE1B (unknown origin) to IC50 for full length recombinant human PDE2A; conditions: tested as the 18F-labelled form

T1 sequence (O00408 whole entry): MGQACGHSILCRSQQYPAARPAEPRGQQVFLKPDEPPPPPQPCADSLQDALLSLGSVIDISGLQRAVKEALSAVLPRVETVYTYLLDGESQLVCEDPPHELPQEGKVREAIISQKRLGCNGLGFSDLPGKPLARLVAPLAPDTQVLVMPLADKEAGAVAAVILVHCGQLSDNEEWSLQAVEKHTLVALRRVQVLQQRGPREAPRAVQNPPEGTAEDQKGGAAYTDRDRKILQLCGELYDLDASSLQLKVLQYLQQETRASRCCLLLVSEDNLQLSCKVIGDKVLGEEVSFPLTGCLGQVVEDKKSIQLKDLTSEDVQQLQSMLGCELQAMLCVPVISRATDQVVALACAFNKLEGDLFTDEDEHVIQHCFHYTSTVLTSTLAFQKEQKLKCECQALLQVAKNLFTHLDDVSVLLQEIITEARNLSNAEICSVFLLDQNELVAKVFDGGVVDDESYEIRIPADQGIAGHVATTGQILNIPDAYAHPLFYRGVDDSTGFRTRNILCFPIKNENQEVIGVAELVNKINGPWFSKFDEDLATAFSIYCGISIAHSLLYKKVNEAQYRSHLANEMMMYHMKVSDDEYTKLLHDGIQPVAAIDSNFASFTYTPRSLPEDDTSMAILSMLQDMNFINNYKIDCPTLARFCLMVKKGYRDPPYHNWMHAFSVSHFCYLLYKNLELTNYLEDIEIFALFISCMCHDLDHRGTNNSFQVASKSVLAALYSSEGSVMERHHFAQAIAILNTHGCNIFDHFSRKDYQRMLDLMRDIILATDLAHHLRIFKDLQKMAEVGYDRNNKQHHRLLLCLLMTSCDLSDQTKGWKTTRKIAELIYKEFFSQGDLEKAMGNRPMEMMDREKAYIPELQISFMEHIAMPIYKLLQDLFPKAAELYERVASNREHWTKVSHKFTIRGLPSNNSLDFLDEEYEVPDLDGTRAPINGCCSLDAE

For `COc1ccc2nnc3c(C)nc(-c4ccccc4Cl)n3c2n1`, which IC50 [1] is on record?
The IC50 was 4 nM.

Which results are given for `COc1ncc(-c2cc(C3=Nc4c(C(C)(C)C)nn(CCO)c4C(=O)NC3)ccc2OC)cn1`?
clearance [2]: 27 mL/min/kg; half-life [3]: 1.5 h

With `Cc1nc2ccc(CN3CCOCC3)cc2n2c(-c3ccccc3Cl)nnc12` as the molecule, how does the concentration at 5 min [4] read?
Its concentration at 5 min is 70 ng/g.

What about the Ratio IC50 (Homo sapiens [5]) of the same molecule?
Its Ratio IC50 is > 600.

Which clearance [2] does the source give for `CCC(CC)c1nn(CCO)c2c1N=C(c1ccc(-n3ccnc3C)cc1)CNC2=O` here?
Its clearance is 70 mL/min/kg.

What about the half-life [3] of the same molecule?
The half-life was 0.5 h.

Which IC50 [6] does the source give for `Cc1ccc2nc(C)c3nnc(-c4cc(OCCCC(F)(F)F)ccc4Cl)n3c2c1` here?
The IC50 was > 1000 nM.

What does the source list for `COc1cccc2nc(C)c3nnc(-c4ccccc4Cl)n3c12`?
IC50 [7]: 9 nM; IC50 [8]: 6 nM

With `Cc1nc(-c2cnn(C)c2-c2ccc(C(F)(F)F)cn2)c2c(N3CCC3)ncnn12` [PF-05180999] as the molecule, how does the Kp uu [9] read?
The Kp uu was 0.5.

For `Cc1nc2ccc(CN3CCOCC3)cc2n2c(-c3c([18F])cccc3Cl)nnc12`, which Drug uptake (Cerebellum [10]) is on record?
The Drug uptake was 82%.

What about the Drug uptake (Cerebellum [11]) of the same molecule?
Its Drug uptake is 96%.

What about the Drug uptake (Cerebrum [12]) of the same molecule?
Its Drug uptake is 92%.

What about the Drug uptake (Cerebrum [13]) of the same molecule?
Its Drug uptake is 96%.

With `COc1ccc(Cc2nc(O)c3c(C)nc([C@@H](CCCc4ccccc4)[C@@H](C)O)n3n2)cc1OC` as the molecule, how does the Ratio IC50 [14] read?
The Ratio IC50 was > 100.

What about the Ratio IC50 [15] of the same molecule?
Its Ratio IC50 is 50.

What about the IC50 [16] of the same molecule?
Its IC50 is 2 nM.

Which results are given for `COc1cc2c(cc1-c1ccccc1)C(c1cccc(C(N)=O)c1)=NCC(=O)N2C`?
inhibition (Bos taurus [17]): 14%; inhibition (Bos taurus [18]): 23%

Which results are given for `Cc1nc(-c2cnn(C)c2-c2ccc(C(F)(F)F)cc2)c2c(N3CC(F)C3)ncnn12`?
Ratio IC50 (Homo sapiens [19]): > 20000; Ratio IC50 (Homo sapiens [20]): > 20000; Ratio IC50 (Homo sapiens [21]): > 20000; Ratio IC50 (Homo sapiens [22]): > 20000; Ratio IC50 (Homo sapiens [23]): > 20000; Ratio IC50 (Homo sapiens [24]): > 20000; Ratio IC50 (Homo sapiens [25]): > 20000; Ratio IC50 (Homo sapiens [26]): > 20000; Ratio IC50 (Homo sapiens [27]): > 20000

Source: ChEMBL document CHEMBL3091315, “PDE2 inhibition: potential for the treatment of cognitive disorders” (Bioorg Med Chem Lett, 2013)
